Data from publication PMC3831706 (British Journal of Pharmacology, 2013).

Target: T1, 5-HT3A receptor (Homo sapiens, UniProt P46098)
T1 construct: gene HTR3A
T1 sequence (P46098 24-478): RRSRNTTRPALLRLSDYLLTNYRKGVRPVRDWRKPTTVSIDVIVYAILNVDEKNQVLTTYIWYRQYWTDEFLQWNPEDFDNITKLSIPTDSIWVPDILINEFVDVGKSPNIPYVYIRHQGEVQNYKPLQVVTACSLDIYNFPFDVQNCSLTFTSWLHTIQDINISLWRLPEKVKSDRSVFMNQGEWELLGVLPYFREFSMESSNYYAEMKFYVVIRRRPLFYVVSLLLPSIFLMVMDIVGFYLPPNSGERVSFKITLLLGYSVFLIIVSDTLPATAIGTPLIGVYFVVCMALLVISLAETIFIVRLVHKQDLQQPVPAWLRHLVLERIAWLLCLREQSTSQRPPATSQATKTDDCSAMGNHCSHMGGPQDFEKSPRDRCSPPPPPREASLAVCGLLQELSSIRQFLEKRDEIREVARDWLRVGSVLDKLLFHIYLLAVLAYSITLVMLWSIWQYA
Experiment: cell-based

Question: With `O=C1c2cccc3c2[C@H](CCC3)CN1[C@@H]1CN2CCC1CC2` [PAL, palonosetron] as the molecule, how does the Ki read?
Answer: 0.22 ± 0.07 nM
